Legend:
[1] = tested on: ovariectomized (ovex) rats; assay: Femur bone density in ovariectomized rats (model of post-menopausal osteoporosis); assay type: in vivo, Sprague Dawley rats; conditions: for inhibition in vivo at 1 mg/kg: Rattus norvegicus, 840 h, 1 mg/kg oral, relative to estrogen treated and untreated ovex animals, read-out: % Inhibition of Bone Loss; for Prevention of bone loss (in words): oral, femur density
Method: A model of post-menopausal osteoporosis was used in which effects of different treatments upon femur density were determined. Seventy-five day old female Sprague Dawley rats (weight range of 225 g to 275 g) were obtained from Charles River Laboratories (Portage, Mich.). They were housed in groups of 3 and had ad libitum access to food (calcium content approximately 1%) and water. Room temperature was maintained at 22.2°±1.7° C. with a minimum relative humidity of 40%. The photoperiod in the room was 12 hours light and 12 hours dark.
The right femurs were excised and scanned at the distal metaphysis 1 mm from the patellar groove with single photon absorptiometry. Results of the densitometer measurements represent a calculation of bone density as a function of the bone mineral content and bone width.
Results are reported as the mean of measurements from thirty rats ± the standard error of the mean.
Accordingly, each point reflects the responses of thirty rats and depicts a typical dose response curve for raloxifene in this model. Results are reported as the mean ± the standard error of the mean.
Other compounds of formula I were administered orally in the rat assay described in Example 1.

[2] = tested on: bone loss in postmenopausal women; conditions: cited from earlier work

COc1ccc(-c2sc3cc(OC)ccc3c2C(=O)c2ccc(OCCN3CCCCC3)cc2)cc1 [Compound 18]
inhibition in vivo at 1 mg/kg [1]: 26%

O=C(c1ccc(OCCN2CCCCC2)cc1)c1c(-c2ccc(O)cc2)sc2cc(O)ccc12 [raloxifene, 6-hydroxy-2-(4-hydroxyphenyl)-3-[4-(2-piperidinoethoxy)benzoyl]benzo[b]thiophene]
Prevention of bone loss (in words) [1]: prevented bone loss in a dose dependent manner

C#C[C@]1(O)CC[C@H]2[C@@H]3CCc4cc(O)ccc4[C@H]3CC[C@@]21C [EE2, ethynyl estradiol]
Prevention of bone loss (in words) [1]: prevented this loss of bone in a dose dependent manner

O=C(c1ccc(OCCN2CCCC2)cc1)c1c(-c2ccc(O)cc2)sc2cc(O)ccc12 [Compound 16]
inhibition in vivo at 1 mg/kg [1]: 25%

estrogen
Disorders implicated in long-term estrogen therapy (in words) ([2]; long-term therapy, postmenopausal women): increased risk of uterine and breast cancer | Protective effects of estrogen therapy on bone (in words) ([2]; women smokers (Kiel et al.)): eliminated for women smokers

O=C(Oc1ccc(-c2sc3cc(OC(=O)c4ccccc4)ccc3c2C(=O)c2ccc(OCCN3CCCCC3)cc2)cc1)c1ccccc1 [Compound 12]
inhibition in vivo at 1 mg/kg [1]: 60%

Source: US5571808A, “Method for treating smoking-related bone loss” (Eli Lilly and Company, priority 1995, dated 1996)
